Where no end group is shown, it is not given here. [ ]: non-standard residue; d: D form. Ac5c = NC1(C(=O)O)CCCC1
Assays:
[1] = In vivo insulin secretion in normal rats; design: species or system Sprague Dawley rats; conditions: fasted male rats, iv compound with glucose 1 g/kg, samples to 20 minutes
Procedure: D. Determination of In Vivo Insulin Secretion in Normal Rats
Male Sprague Dawley rats with a body weight of approximately 275-300 g were used as experimental subjects. The day prior to the treatment, right atrial cannulae were implanted via the jugular vein under chlorohydrate. Each cannula was filled with 100 u/ml heparin saline and tied. The rats were fasted for approximately 18 hours prior to dosing with the compound or the vehicle (saline/0.25% BSA). The day of the experiment, aliquots of compound were thawed, brought to room temperature and vortexed thoroughly. A careful check was made for any sign of compound coming out of solution. 10 minutes prior to compound/glucose injection, a 500 μl blood sample was withdrawn and replaced with an equal volume of heparinized saline (10 u/ml). At time 0, a 500 μl blood sample was withdrawn through the cannula. Next, either the vehicle or the appropriate dose of the compound was injected into the cannula and pushed in with the glucose (1 g/kg) or vehicle solution. Finally, 500 μl of volume of heparinized saline (10 u/ml) was used to push in the remaining glucose through the cannula. Additional 500 μl blood samples were withdrawn at 2.5, 5, 10, and 20-minute post-glucose dosing; each immediately followed by a bolus, iv injection of 500 μl heparinized saline (10 u/ml) through the cannula. The plasma was collected from the blood samples by centrifugation, and stored at −20° C. until assay for insulin content. Numerical values of the total insulin secretion, which show the in vivo effects of the compounds of Examples 105, 106, 118, and 119, are summarized in Table 3.

[2] = Rat plasma half-life assay; type: in vitro ADME; conditions: rat plasma, 37° C., LC-MS; read-out: Rat Plasma T½ (converted)
[3] = Human plasma half-life assay; type: in vitro ADME; conditions: human plasma, 37° C., LC-MS; read-out: Human Plasma T½ (converted)
[4] = target: T1, human recombinant GIP receptor (Homo sapiens, UniProt P48546); experiment: In vitro hGIP receptor binding assay ([125I]GIP displacement, CHO-K1 membranes)
T1 construct: expressed in transfected cells; host or cells: CHO-K1 clonal cells (membranes)
T1 sequence (P48546 22-466): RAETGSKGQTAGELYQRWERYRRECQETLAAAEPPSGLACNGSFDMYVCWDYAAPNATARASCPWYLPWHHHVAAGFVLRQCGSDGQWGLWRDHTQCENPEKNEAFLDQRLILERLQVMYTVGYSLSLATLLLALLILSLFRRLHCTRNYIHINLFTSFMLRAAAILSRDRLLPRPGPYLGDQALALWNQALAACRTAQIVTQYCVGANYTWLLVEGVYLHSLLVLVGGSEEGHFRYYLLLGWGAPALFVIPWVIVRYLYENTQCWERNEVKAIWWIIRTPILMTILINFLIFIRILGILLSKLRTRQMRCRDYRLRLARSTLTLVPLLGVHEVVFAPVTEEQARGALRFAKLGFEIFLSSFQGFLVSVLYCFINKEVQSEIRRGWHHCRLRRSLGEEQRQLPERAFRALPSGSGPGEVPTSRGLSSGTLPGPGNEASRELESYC
Text: A. In Vitro hGIP Receptor Binding Assay

Q: With `CC[C@H](C)[C@H](NC(=O)[C@H](CCCCN)NC(=O)[C@H](CC(=O)O)NC(=O)[C@H](CCSC)NC(=O)[C@H](C)NC(=O)[C@@H](NC(=O)C1(NC(=O)[C@H](Cc2ccc(O)cc2)NC(=O)[C@H](CC(=O)O)NC(=O)[C@H](CO)NC(=O)[C@@H](NC(=O)[C@H](Cc2ccccc2)NC(=O)[C@@H](NC(=O)CNC(=O)[C@H](CCC(=O)O)NC(=O)[C@@H](C)NC(=O)[C@@H](N)Cc2ccc(O)cc2)[C@@H](C)O)[C@@H](C)CC)CCCC1)[C@@H](C)CC)C(=O)N[C@@H](Cc1c[nH]cn1)C(=O)N[C@@H](CCC(N)=O)C(=O)N[C@@H](CCC(N)=O)C(=O)N[C@@H](CC(=O)O)C(=O)N[C@@H](Cc1ccccc1)C(=O)N[C@H](C(=O)N[C@@H](CC(N)=O)C(=O)N[C@@H](Cc1c[nH]c2ccccc12)C(=O)N[C@@H](CC(C)C)C(=O)N[C@@H](CC(C)C)C(=O)N[C@@H](C)C(=O)N[C@@H](CCC(N)=O)C(=O)N[C@@H](CCCCN)C(=O)NCC(=O)N[C@@H](CCCCN)C(=O)N[C@@H](CCCCN)C(=O)N[C@@H](CC(N)=O)C(=O)N[C@@H](CC(=O)O)C(=O)N[C@@H](Cc1c[nH]c2ccccc12)C(=O)N[C@@H](CCCCN)C(=O)N[C@@H](Cc1c[nH]cn1)C(=O)N[C@@H](CC(N)=O)C(=O)N[C@H](C(=O)N[C@H](C(=O)N[C@@H](CCC(N)=O)C(=O)N[C@@H](Cc1c[nH]cn1)C(=O)O)[C@@H](C)O)[C@@H](C)CC)C(C)C` [Example 105, (D-Ala^2, A5c^11, His^43)hGIP(1-43)-OH] as the compound, how does the “AUC (total insulin secretion)” value [1] read?
A: 114.70

Q: And the half-life at 0.1 mg/ml [2]?
A: 6.9 h

Q: What about the half-life at 0.1 mg/ml [3] of the same compound?
A: 19.1 h

Q: With `CCCC[C@H](NC(=O)[C@H](C)NC(=O)[C@@H](NC(=O)C1(NC(=O)[C@H](Cc2ccc(O)cc2)NC(=O)[C@H](CC(=O)O)NC(=O)[C@H](CO)NC(=O)[C@@H](NC(=O)[C@H](Cc2ccccc2)NC(=O)[C@@H](NC(=O)CNC(=O)[C@H](CCC(=O)O)NC(=O)CNC(=O)[C@@H](N)Cc2ccc(O)cc2)[C@@H](C)O)[C@@H](C)CC)CCCC1)[C@@H](C)CC)C(=O)N[C@@H](CC(=O)O)C(=O)N[C@@H](CCCCN)C(=O)N[C@H](C(=O)N[C@@H](Cc1c[nH]cn1)C(=O)N[C@@H](CCC(N)=O)C(=O)N[C@@H](CCC(N)=O)C(=O)N[C@@H](CC(=O)O)C(=O)N[C@@H](Cc1ccccc1)C(=O)N[C@H](C(=O)N[C@@H](CC(N)=O)C(=O)N[C@@H](Cc1c[nH]c2ccccc12)C(=O)N[C@@H](CC(C)C)C(=O)N[C@@H](CC(C)C)C(=O)N[C@@H](C)C(=O)N[C@@H](CCC(N)=O)C(=O)N[C@@H](CCCCN)C(=O)NCC(=O)N[C@@H](CCCCN)C(=O)N[C@@H](CCCCN)C(=O)N[C@@H](CC(N)=O)C(=O)N[C@@H](CC(=O)O)C(=O)N[C@@H](Cc1c[nH]c2ccccc12)C(=O)N[C@@H](CCCCN)C(=O)N[C@@H](Cc1c[nH]cn1)C(=O)N[C@@H](CC(N)=O)C(=O)N[C@H](C(=O)N[C@H](C(=O)N[C@@H](CCC(N)=O)C(=O)N[C@@H](Cc1c[nH]cn1)C(=O)O)[C@@H](C)O)[C@@H](C)CC)C(C)C)[C@@H](C)CC` [Example 118, (Gly^2, A5c^11, Nle^14, His^43)hGIP(1-43)-OH] as the compound, how does the “AUC (total insulin secretion)” value [1] read?
A: 88.22

Q: What about the half-life at 0.1 mg/ml [2] of the same compound?
A: 11.2 h

Q: What about the half-life at 0.1 mg/ml [3] of the same compound?
A: > 42 h

Q: What about the Ki [4] of the same compound?
A: 0.87 nM

Q: With `CCCC[C@H](NC(=O)[C@H](C)NC(=O)[C@@H](NC(=O)C1(NC(=O)[C@H](Cc2ccc(O)cc2)NC(=O)[C@H](CC(=O)O)NC(=O)[C@H](CO)NC(=O)[C@@H](NC(=O)[C@H](Cc2ccccc2)NC(=O)[C@@H](NC(=O)CNC(=O)[C@H](CCC(=O)O)NC(=O)[C@@H](C)NC(=O)[C@@H](N)Cc2ccc(O)cc2)[C@@H](C)O)[C@@H](C)CC)CCCC1)[C@@H](C)CC)C(=O)N[C@@H](CC(=O)O)C(=O)N[C@@H](CCCCN)C(=O)N[C@H](C(=O)N[C@@H](Cc1c[nH]cn1)C(=O)N[C@@H](CCC(N)=O)C(=O)N[C@@H](CCC(N)=O)C(=O)N[C@@H](CC(=O)O)C(=O)N[C@@H](Cc1ccccc1)C(=O)N[C@H](C(=O)N[C@@H](CC(N)=O)C(=O)N[C@@H](Cc1c[nH]c2ccccc12)C(=O)N[C@@H](CC(C)C)C(=O)N[C@@H](CC(C)C)C(=O)N[C@@H](C)C(=O)N[C@@H](CCC(N)=O)C(=O)N[C@@H](CCCCN)C(=O)NCC(=O)N[C@@H](CCCCN)C(=O)N[C@@H](CCCCN)C(=O)N[C@@H](CC(N)=O)C(=O)N[C@@H](CC(=O)O)C(=O)N[C@@H](Cc1c[nH]c2ccccc12)C(=O)N[C@@H](CCCCN)C(=O)N[C@@H](Cc1c[nH]cn1)C(=O)N[C@@H](CC(N)=O)C(=O)N[C@H](C(=O)N[C@H](C(=O)N[C@@H](CCC(N)=O)C(=O)N[C@@H](Cc1c[nH]cn1)C(=O)O)[C@@H](C)O)[C@@H](C)CC)C(C)C)[C@@H](C)CC` [Example 119, (D-Ala^2, A5c^11, Nle^14, His^43)hGIP(1-43)-OH] as the compound, how does the “AUC (total insulin secretion)” value [1] read?
A: 167.48

Q: What about the half-life at 0.1 mg/ml [2] of the same compound?
A: 15.4 h

Q: What about the half-life at 0.1 mg/ml [3] of the same compound?
A: 35.7 h

Q: With “Y[dA]EGTFISDY[Ac5c]IAMDKIHQQDFVNWLLAQKGKKNDWKHNI[Ac5c]Q-OH [Example 106, (D-Ala^2, A5c^11, 41)hGIP(1-42)-OH]” as the compound, how does the “AUC (total insulin secretion)” value [1] read?
A: 161.73

Q: And the half-life at 0.1 mg/ml [2]?
A: 9.2 h

Q: What about the half-life at 0.1 mg/ml [3] of the same compound?
A: > 55 h

Reference: US9074014B2 (Ipsen Pharma S.A.S., priority 2008, dated 2015)
